Experiment [1] can be described thus: alpha-synuclein stem-loop luciferase translation blockers – H4 neuroglioma cells, luminescence, confirmation (AID 1988). Type of experiment: functional, cell-based.
Experiment [2] can be described thus: blockers of HIV-1 ZM109 envelope-driven cell-cell fusion – HeLa effector, CEM target cells, luciferase, cherry-pick, dose response (AID 652058).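 Note: luciferase signal from HIV-1 Env mediated cell-cell fusion of effector and target cells.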 Type of experiment: functional, cell-based.
The nature of experiment [3]: HIV-1 AD8 envelope cell-cell fusion blockers – cherry-pick, dose response (AID 652062).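 Note: luciferase signal from cell-cell fusion driven by HIV-1 clade B AD8 Env; potency is for inhibitors of fusion seen as a drop in luminescence.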 Type of experiment: functional, cell-based.
Experiment [4] concerns the target T1, Microphthalmia-associated transcription factor (Homo sapiens, UniProt O75030).
T1 sequence (O75030 whole entry): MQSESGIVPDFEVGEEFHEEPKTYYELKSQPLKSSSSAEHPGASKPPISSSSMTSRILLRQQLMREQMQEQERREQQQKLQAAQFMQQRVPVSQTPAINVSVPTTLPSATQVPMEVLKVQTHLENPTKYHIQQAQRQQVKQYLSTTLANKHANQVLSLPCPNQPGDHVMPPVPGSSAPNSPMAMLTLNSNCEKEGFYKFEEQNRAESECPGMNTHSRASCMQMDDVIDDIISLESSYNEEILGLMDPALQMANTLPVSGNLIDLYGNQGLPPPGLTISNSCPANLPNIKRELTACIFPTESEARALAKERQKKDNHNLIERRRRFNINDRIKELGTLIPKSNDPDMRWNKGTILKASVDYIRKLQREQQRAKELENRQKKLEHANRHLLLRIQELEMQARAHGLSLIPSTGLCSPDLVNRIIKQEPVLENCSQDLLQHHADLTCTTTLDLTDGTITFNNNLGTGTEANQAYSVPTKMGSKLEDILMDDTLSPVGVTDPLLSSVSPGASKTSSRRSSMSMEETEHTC
The experiment in a line: reducers of TRPM1 reporter luminescence, concentration series – cell-based, SK-MEL-5, cherry-picked, set 3, MITF inhibitor project, dose response (AID 493073).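 Note: SK-MEL-5 melanoma cells with luciferase driven by the MITF target TRPM1 promoter.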 Type of experiment: functional.

Experiment [5] is described as follows: luciferase reporter signal suppression in cells – H4 neuroglioma cells, luminescence, dose response (AID 1990). Type of experiment: functional, cell-based.
The target in experiment [6] is T2, Heat shock factor protein 1 (Mus musculus, UniProt P38532).
T2 sequence (P38532 whole entry): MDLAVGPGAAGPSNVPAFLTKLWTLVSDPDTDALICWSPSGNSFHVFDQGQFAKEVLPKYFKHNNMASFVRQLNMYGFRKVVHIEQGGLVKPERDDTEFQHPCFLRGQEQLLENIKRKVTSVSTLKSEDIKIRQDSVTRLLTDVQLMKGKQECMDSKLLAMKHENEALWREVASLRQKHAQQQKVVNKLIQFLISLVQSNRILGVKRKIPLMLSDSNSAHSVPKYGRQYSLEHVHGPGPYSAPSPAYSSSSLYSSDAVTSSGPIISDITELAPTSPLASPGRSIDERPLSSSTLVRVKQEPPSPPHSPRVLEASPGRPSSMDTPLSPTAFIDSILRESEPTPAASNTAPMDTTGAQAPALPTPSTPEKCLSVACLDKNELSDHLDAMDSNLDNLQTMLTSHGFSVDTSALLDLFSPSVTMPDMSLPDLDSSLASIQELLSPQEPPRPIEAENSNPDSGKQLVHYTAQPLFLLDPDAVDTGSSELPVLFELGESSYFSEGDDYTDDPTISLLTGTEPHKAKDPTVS
Description: decrease of HSF1-responsive luciferase luminescence – cell-based, NIH3T3, dose retest, confirmation (AID 2382).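 Note: NIH3T3 fibroblasts with HSF1-driven luciferase reporter stressed by proteasome inhibitor MG132; luminescence from HSF1-driven luciferase expression after 8 hours of MG132 stress.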 Type of experiment: functional.

The nature of experiment [7]: off-target signal loss in HeLa-CEM21 co-culture – HeLa F-luc CTL cells, cherry-picked, counter-screen for HIV-1 Env fusion inhibitor project, dose response (AID 652040).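 Note: potency for signal decrease marking cytotoxic or nonspecific inhibition.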 Type of experiment: functional, cell-based. On the technique in general: The purpose of a counterscreen is to sort out artefacts and off-target activity.
A short description of experiment [8]: Luminescence-based counterscreen assay for KLF5 inhibitors: dose response cell-based high throughput screening assay to identify cytotoxic compounds using the IEC-6 intestinal epithelial cell line. [Related pubchem assays: 1700 (Primary screen.), 1834 (Confirmation screen.), 1858 (Summary AID.), 1905 (Counterscreen.)]. Type of experiment: functional.
A short description of experiment [9]: blockers of HIV-1 envelope-mediated cell-cell fusion – cherry-pick, dose response (AID 652057). Type of experiment: functional, cell-based.
A short description of experiment [10]: Luminescence Cell-Based Dose Response HTS to Identify Inhibitors of 5'UTR Stem-Loop Driven Prion Protein mRNA Translation in H4 Neuroglioblastoma Cells. [Related pubchem assays: 1827 (Project Summary), 1813 (Primary HTS)]. Type of experiment: functional.
For experiment [11], the target named is Peroxisome proliferator-activated receptor gamma/Nuclear receptor coactivator 2 (Homo sapiens, UniProt P37231). Type of experiment: functional.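 Note: agonist potency for raising coactivator recruitment to the receptor.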
Experiment [12] concerns the target Peroxisome proliferator-activated receptor gamma/Nuclear receptor coactivator 3 (Homo sapiens, UniProt P37231). Type of experiment: functional.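 Note: agonist potency for raising coactivator recruitment to the receptor.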
The target in experiment [13] is Peroxisome proliferator-activated receptor gamma/Nuclear receptor coactivator 1 (Homo sapiens, UniProt P37231). Type of experiment: functional.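 Note: agonist potency as compounds enhance coactivator SRC-1 recruitment to PPARgamma.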
In experiment [14] the target is ADP-ribosylation factor GTPase-activating protein 1 (Rattus norvegicus, UniProt Q62848). The experiment in a line: Fluorescence polarization-based biochemical high throughput dose response screening assay to identify inhibitors of ADP-ribosylation factor GTPase activating protein 1 (ARFGAP1). Type of experiment: functional. A general note: In fluorescence polarisation assays a small probe gives low polarisation when free and higher when bound to something large.

Another experiment deals with H9c2. The experiment in a line: cells. Type of experiment: functional, cell-based. The following applies: Rattus norvegicus, H9c2, Myocardium.
Experiment [15] in a line: A Cell Based Secondary Assay To Explore Cytotoxicity of Compounds that Sensitize Mycobacterium Tuberculosis to Beta-Lactam Antibiotics. Type of experiment: functional.
Experiment [16] in a line: NIH-3T3 fibroblast cytotoxicity, dose response, cytotoxicity control, cell-based, fluorescence, Alamar Blue, secondary assay (AID 2327).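 Note: NIH-3T3 mouse fibroblasts cultured with fluconazole at 8 µg/mL.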 Type of experiment: functional.
The nature of experiment [17]: fluconazole-exposed Candida albicans growth modulators – fluorescence, retest, confirmation (AID 2467). Type of experiment: functional, cell-based.
Experiment [18] is described as follows: antiviral protection against BTV-induced cell death – arbovirus, BSR cells, confirmation (AID 1250).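 Note: protection from viral cytopathic effect measured as cell viability by ATP luminescence.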 Type of experiment: functional.
The target in another experiment is Genome polyprotein (dengue virus type 2, UniProt P29990). The experiment in a line: flavivirus cap methylation enzyme inhibition – biochemical, confirmation dose response, primary screen (AID 588689). Type of experiment: functional.
Experiment [19] in a line: Fluorescence-based cell-based high throughput dose response assay for inhibitors of the interaction of nucleotide-binding oligomerization domain containing 2 (NOD2) and the receptor-interacting serine-threonine kinase 2 (RIPK2). Type of experiment: functional. The following applies: Homo sapiens.
Experiment [20] in a line: Luminescence Cell-Based Dose Retest to Confirm Inhibitors of Cancer Stem Cells. [Related pubchem assays (depositor defined):AID2717, AID2721]. Type of experiment: functional. The settings on record: Homo sapiens.
Experiment [21] concerns the target Sphingosine 1-phosphate receptor 1 (Homo sapiens, UniProt P21453). Type of experiment: functional.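 Note: Tango beta-arrestin reporter U2OS cells stimulated with S1P near its EC80; inhibitor potency meaning antagonism of receptor activation by the natural agonist.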
In experiment [22] the target is T2, Heat shock factor protein 1. The experiment in a line: enhancement of HSF1-driven luciferase signal – cell-based, NIH3T3, luminescence, dose retest, confirmation (AID 435004).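 Note: stress induced by proteasome inhibitor MG132 added 30 min after compound; luciferase reporter driven by HSF1 response element in NIH3T3 cells; actives raise luminescence as potentiators of the MG132 stress response.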 Type of experiment: functional.
The nature of experiment [23]: reduced cellular PGC1a acetyl-lysine signal – cell-based, cherry-picked samples, dose response (AID 720514).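 Note: potency may reflect raised or lowered acetylation signal.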 Type of experiment: functional.
Experiment [24] relates to HEK293. The experiment in a line: cells. The following applies: Homo sapiens.
The target in the next experiment is Paired box protein Pax-8 (Homo sapiens, UniProt Q06710). The experiment in a line: PAX8 transcriptional activity inhibition in RMG-I – RMG-I cells, luciferase, cherry-pick, dose response (AID 687027).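 Note: luciferase reporter driven by Pax8 target thyroperoxidase promoter measured by SteadyGlo luminescence.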 Type of experiment: functional, cell-based.
A further experiment concerns the target Galanin receptor type 2 (Homo sapiens, UniProt O43603). Description: Dose Response cell-based high-throughput screening assay to identify antagonists of galanin receptor 2 (GALR2). [Related pubchem assays: 828, 866 ]. Type of experiment: functional.
Experiment [25] is described as follows: MIN6 cell viability loss – mouse insulinoma, cytotoxicity control, dose response (AID 2122).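 Note: confirmatory high-throughput counterscreen run to flag cytotoxic compounds.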 Type of experiment: functional.
Experiment [26] can be described thus: decrease of insulin promoter-GFP reporter – imaging, high-content screening, mouse beta cells (AID 1628). Type of experiment: functional. The settings on record: MIN6.
Experiment [27] relates to HEK293. The experiment in a line: cells. The following applies: Homo sapiens. The source holds these as a separate data set.
The target in experiment [28] is Sphingosine 1-phosphate receptor 4 (Homo sapiens, UniProt O95977). The experiment in a line: Fluorescence dose response cell-based high throughput screening assay for antagonists of the Sphingosine 1-Phosphate Receptor 4 (S1P4). [Related pubchem assays: 1524 (Confirmation in triplicates.), 1510 (Primary screen.)]. Type of experiment: functional.
A short description of experiment [29]: mitochondrial function rescue without frataxin homolog – Friedreich's ataxia, plus single-dose screen, dose response (AID 1465).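 Note: yeast depleted of Yfh1p frataxin homolog grown on glycerol needing respiration; WST-1 tetrazolium dye reduction as measure of cellular dehydrogenase metabolic activity.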 Type of experiment: functional.
For experiment [30], the target named is Heat shock protein HSP 90-alpha (Homo sapiens, UniProt P07900). Type of experiment: functional, organism-based.
The subject of a further experiment is HeLa. The experiment in a line: Cytotoxicity counterscreen assay for transcriptional activators of heat shock protein 70 (Hsp70). [Related pubchem assays: 1203, 1252 ]. Type of experiment: functional. The settings on record: Homo sapiens.
The test system of a further experiment is INS1. The experiment in a line: INS-1E survival protection against cytokine death – cell-based, luminescence, retest, dose response (AID 449756).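 Note: cell death triggered by IL-1 beta plus TNF-alpha plus IFN-gamma mixture; protective hits raise ATP signal compared with cytokine alone wells.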 Type of experiment: functional. The settings on record: Rattus norvegicus.

Calls of active or inactive are those of the source. Some results are limits rather than exact numbers.

Paired box protein Pax-8, sequence (Q06710 whole entry): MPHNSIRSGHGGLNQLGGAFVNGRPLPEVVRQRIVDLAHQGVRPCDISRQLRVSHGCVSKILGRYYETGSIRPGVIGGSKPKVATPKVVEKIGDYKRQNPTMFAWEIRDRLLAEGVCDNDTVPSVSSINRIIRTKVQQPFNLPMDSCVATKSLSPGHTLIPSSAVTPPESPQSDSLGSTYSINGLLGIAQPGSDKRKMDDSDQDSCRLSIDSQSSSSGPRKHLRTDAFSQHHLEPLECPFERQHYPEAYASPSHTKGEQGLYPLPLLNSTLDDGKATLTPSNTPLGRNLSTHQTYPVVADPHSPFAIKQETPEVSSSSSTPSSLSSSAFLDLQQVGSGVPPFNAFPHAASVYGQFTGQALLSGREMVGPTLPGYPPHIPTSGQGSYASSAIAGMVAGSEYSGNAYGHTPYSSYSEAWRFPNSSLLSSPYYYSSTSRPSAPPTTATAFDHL
Galanin receptor type 2, sequence (O43603 whole entry): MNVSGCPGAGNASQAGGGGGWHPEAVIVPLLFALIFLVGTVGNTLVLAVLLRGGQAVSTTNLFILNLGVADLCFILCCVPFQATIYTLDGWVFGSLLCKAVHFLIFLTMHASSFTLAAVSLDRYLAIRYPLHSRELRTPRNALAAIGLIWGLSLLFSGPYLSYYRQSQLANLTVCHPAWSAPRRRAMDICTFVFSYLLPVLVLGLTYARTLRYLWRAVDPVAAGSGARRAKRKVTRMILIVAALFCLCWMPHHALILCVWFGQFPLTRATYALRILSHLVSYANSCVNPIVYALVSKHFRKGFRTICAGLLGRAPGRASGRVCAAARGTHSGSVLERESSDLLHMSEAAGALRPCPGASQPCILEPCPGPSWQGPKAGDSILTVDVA
Sphingosine 1-phosphate receptor 1, sequence (P21453 whole entry): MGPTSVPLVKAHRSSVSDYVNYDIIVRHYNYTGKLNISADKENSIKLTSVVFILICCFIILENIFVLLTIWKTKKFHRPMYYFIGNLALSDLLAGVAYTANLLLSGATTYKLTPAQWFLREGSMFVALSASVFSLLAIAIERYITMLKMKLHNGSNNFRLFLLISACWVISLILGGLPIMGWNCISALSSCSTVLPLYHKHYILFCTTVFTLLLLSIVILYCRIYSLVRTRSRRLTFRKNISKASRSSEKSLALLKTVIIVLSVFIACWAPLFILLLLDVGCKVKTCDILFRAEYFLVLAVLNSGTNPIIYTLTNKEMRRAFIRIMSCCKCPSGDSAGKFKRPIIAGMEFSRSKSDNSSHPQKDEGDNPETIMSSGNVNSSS
Genome polyprotein, sequence (P29990 2492-3391 limits assumed): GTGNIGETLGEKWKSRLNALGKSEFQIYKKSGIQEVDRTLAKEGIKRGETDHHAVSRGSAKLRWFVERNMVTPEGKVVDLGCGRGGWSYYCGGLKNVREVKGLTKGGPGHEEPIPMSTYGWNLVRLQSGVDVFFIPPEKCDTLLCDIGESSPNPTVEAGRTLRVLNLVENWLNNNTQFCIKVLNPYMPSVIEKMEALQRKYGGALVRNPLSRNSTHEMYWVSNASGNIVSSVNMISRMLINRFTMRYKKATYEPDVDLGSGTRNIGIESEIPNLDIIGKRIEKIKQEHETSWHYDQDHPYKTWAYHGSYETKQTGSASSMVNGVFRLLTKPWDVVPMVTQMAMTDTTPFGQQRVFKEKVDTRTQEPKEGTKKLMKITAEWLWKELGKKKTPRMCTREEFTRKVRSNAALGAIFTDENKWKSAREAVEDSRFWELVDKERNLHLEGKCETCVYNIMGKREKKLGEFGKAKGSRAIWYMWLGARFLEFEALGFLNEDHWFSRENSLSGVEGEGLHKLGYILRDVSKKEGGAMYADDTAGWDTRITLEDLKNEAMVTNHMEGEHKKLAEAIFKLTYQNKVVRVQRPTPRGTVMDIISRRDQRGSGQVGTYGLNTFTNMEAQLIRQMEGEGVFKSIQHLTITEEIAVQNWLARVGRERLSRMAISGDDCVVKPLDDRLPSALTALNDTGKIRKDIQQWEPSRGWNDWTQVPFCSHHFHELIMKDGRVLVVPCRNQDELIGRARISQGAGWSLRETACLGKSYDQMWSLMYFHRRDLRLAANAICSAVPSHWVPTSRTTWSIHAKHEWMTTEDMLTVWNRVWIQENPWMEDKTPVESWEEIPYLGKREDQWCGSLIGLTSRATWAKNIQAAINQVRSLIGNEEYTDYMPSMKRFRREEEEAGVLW
Peroxisome proliferator-activated receptor gamma/Nuclear receptor coactivator 1, sequence (P37231 whole entry): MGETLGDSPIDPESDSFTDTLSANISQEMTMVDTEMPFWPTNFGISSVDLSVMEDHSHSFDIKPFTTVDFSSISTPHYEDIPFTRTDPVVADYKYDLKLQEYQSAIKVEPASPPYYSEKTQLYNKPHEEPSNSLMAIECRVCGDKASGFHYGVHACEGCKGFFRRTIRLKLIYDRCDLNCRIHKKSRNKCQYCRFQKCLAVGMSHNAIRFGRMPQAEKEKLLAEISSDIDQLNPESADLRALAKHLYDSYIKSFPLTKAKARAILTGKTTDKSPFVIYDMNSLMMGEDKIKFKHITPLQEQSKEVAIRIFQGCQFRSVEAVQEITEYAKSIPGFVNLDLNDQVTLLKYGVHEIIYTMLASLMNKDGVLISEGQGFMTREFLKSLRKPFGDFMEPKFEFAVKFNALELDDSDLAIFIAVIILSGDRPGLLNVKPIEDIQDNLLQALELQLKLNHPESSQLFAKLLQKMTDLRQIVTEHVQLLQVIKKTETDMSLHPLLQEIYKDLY
Peroxisome proliferator-activated receptor gamma/Nuclear receptor coactivator 1, sequence (Q15788 whole entry, further chain): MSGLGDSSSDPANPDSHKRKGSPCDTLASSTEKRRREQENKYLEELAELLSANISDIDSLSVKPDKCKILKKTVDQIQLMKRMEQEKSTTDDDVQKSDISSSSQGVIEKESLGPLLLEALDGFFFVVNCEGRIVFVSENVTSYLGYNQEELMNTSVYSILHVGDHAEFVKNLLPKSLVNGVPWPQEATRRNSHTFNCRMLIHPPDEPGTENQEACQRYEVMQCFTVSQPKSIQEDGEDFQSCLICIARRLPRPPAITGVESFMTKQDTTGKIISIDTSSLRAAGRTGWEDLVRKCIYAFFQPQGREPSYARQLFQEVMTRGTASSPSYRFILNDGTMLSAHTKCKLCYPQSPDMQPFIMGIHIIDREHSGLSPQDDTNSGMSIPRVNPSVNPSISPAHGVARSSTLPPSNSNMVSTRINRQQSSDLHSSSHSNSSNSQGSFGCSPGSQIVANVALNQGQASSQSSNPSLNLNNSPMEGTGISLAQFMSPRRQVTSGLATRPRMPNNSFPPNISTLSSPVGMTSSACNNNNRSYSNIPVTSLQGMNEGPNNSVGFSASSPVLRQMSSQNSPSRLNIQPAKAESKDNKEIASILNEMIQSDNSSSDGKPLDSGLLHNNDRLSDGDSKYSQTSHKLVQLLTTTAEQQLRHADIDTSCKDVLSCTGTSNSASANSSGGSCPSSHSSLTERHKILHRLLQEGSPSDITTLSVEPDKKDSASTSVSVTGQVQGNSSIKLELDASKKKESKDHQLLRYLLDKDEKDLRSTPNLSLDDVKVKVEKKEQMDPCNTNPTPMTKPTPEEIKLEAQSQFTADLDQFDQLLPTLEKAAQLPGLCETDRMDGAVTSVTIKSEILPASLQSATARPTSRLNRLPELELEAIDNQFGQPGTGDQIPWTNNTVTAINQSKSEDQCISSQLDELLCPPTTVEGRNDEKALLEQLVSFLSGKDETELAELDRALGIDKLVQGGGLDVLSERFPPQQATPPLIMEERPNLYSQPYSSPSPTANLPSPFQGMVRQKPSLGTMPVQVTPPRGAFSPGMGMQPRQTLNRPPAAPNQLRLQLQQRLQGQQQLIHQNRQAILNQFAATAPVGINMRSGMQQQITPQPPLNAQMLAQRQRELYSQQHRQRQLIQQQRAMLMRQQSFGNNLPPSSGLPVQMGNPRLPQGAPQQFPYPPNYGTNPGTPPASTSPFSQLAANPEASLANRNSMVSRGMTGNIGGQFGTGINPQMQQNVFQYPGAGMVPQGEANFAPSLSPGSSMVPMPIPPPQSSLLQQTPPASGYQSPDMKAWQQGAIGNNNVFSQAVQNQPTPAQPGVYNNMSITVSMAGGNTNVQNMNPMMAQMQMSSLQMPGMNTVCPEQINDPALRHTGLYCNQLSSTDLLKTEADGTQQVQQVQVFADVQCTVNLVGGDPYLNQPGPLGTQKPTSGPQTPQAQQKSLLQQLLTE
Sphingosine 1-phosphate receptor 4, sequence (O95977 whole entry): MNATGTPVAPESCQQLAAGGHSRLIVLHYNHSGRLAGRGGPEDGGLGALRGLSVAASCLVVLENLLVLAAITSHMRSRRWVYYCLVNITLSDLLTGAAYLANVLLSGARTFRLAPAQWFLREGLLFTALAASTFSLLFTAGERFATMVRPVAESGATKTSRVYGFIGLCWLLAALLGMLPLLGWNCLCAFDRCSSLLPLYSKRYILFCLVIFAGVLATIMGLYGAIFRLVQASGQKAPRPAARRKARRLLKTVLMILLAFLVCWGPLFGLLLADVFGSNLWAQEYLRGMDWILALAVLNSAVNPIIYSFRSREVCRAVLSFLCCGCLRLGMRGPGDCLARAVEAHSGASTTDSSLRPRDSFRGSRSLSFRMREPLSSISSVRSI
ADP-ribosylation factor GTPase-activating protein 1, sequence (Q62848 whole entry): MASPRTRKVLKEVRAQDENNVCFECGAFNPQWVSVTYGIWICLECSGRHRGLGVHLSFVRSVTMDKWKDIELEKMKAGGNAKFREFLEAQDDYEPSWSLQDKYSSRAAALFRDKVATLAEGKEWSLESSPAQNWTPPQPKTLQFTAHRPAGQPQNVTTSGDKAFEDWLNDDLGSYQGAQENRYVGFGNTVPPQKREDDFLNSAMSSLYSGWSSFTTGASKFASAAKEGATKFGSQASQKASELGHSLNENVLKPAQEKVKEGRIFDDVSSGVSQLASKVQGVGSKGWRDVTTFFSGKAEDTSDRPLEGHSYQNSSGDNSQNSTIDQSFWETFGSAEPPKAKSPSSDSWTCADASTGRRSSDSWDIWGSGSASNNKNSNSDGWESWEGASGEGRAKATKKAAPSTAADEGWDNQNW

What is called EC50 is the concentration giving half of the maximal effect. For orientation: AC50 means the concentration at which the activity in the assay is half-maximal. As usually defined, the IC50 is the concentration at which inhibition is half-maximal. Turning to `O=C(NC1=NCCS1)C1COc2ccccc2O1` (stereo unspecified), the concentration for a half-maximal effect (EC50) in [1] was 0.149 µM (active); in experiment [5] it was 3.37 µM (active); in experiment [6] it was 8.01 µM (active); in [10], > 60 µM (not active). Moreover, the AC50 is 13.7 µM (active) in experiment [2]; 3.6 µM (active) in experiment [3]; 1.7 µM (active) in experiment [4]; 3.15 µM (active) in experiment [7]; 1.62 µM (active) in experiment [9]. Also, the 50% inhibitory concentration (IC50) in experiment [8] is reported as > 39.8 µM (not active).
In the case of `COc1ccccc1CNC(=O)CSc1nc(N)c(C#N)c(-c2cccs2)c1C#N`, the figures for the EC50 in experiment [11], in experiment [12] and in experiment [13] were 67.6 µM (not active), > 79.4 µM (not active) and > 79.4 µM (not active), respectively. In experiment [14], the IC50 was 43.2 µM (inactive).
What is called CC50 is the concentration at which the toxic effect on the cells reaches its halfway point. Take `Nc1c(C(=O)NC2CC2)c2nc3ccccc3nc2n1-c1ccc2c(c1)OCO2`: the IC50 with H9c2 is > 79 µM (inactive). Also, the cytotoxic concentration (CC50) in experiment [15] was > 40 µM (active).
Turning to `CCCCCCn1c(=O)c(-c2ccccc2)c(O)c2ccccc21`, the EC50 in experiment [16] was > 150 µM (inactive); in experiment [17] it was 4.42 µM (active). Besides, the values for the IC50 (in [18]; on Genome polyprotein) were 25 µM (active) and 69.4 µM (active), respectively.
`O=C(Cn1ncc(Cl)c(Cl)c1=O)N1CCN(S(=O)(=O)c2ccc3ccccc3c2)CC1`: the IC50 in experiment [19] was 1.77 µM (active); in [21], 8.59 µM (active); on Galanin receptor type 2, 5.37 µM (active); in experiment [25], 1.19 µM (active); in experiment [26], 1.34 µM (active); in experiment [28], 1.52 µM (active). The values for the half-maximal activity concentration (AC50) (in experiment [20]; in experiment [23]; at Paired box protein Pax-8) were 3.25 µM (active), 4.24 µM (active) and 2.51 µM (active), respectively. Besides, the concentration giving a half-maximal response (EC50) in [22] was 3.7 µM (active); in the experiment on HEK293 [24], > 59.6 µM (inactive); with HEK293 [27], > 59.6 µM (inactive).
With `CC(C)NC(=O)/C(C#N)=C/c1ccc(N(C)C)o1`, the EC50 in [29] is > 100 µM (active).
In the case of `CC(C)(C)C1C/C(=C/c2ccccn2)C(=O)/C(=C/c2ccccn2)C1` (stereo unspecified), the half-maximal activity concentration (AC50) in [30] is 7.8 µM (active); in the experiment on INS1, 0.579 µM (active). Besides, the half-maximal cytotoxic concentration (CC50) in the experiment with HeLa is listed as > 1.22 µM (not active).

For the origin of these results see ChEMBL document CHEMBL1201862, “PubChem BioAssay data set” (2004).
